Measurements from patent US9211310B2, “Use of a Chinese medicine composition in preparing medicaments for treating secondary prevention of myocardial infarction” (TASLY PHARMACEUTICAL GROUP CO., LTD, priority 2010, dated 2015).

Test system: patients after acute myocardial infarction
Assay: TCM symptom score, total and single (chest pain, chest tightness, short breath, fatigue, palpitation, spontaneous perspiration, pale complexion), same clinical trial
Assay type: in vivo, human
Design: total score of TCM symptom, Mean / total score of TCM symptom, Min / total score of TCM symptom, Max / total score of TCM symptom, Md / change of total score of TCM symptom, Mean / change of total score of TCM symptom, Max / change of total score of TCM symptom, Md: scale not given here
Details: PP
Excerpt: 3508 patients who were in accordance with the diagnostic standards of AMI for 28 days to 2 years and differentiated as Qi deficiency and blood stagnation syndrome by TCM were studied. 0.5 g Chinese medicine composition prepared by the method of EXAMPLE 1 (Coded as QSYQ) was administrated half an hour after meal, 3 times per day.
They included the overall survival time, angina pectoris score, TCM symptom score and life quality score, where angina pectoris score, TCM symptom score and life quality score were evaluated at randomization, in 1st, 3rd, 6th, 9th, 12th month after treatment and 18th month after follow-up.
The analysis method referred to the angina pectoris score.

CC(=O)Oc1ccccc1C(=O)O [Control group, aspirine]
pale complexion score 3, percent of patients (Baseline): (3.88%)
short breath score 0, % of patients (Baseline): (14.48%)
short breath score 0, number of patients (Baseline): 213
short breath score 3, % of patients (Baseline): (51.12%)
short breath score 3, number of patients (Baseline): 752
short breath score 6, % of patients (Baseline): (32.56%)
short breath score 6, number of patients (Baseline): 479
short breath score 9, % of patients (Baseline): (1.84%)
short breath score 9, number of patients (Baseline): 27
distribution of total score of TCM symptom: Medium, number of patients (Follow-up): 212
distribution of total score of TCM symptom: Medium, percentage of patients (Follow-up): (15.23%)
distribution of total score of TCM symptom: Mild, number of patients (Follow-up): 1177
distribution of total score of TCM symptom: Mild, percentage of patients (Follow-up): (84.55%)
distribution of total score of TCM symptom: Severe, number of patients (Follow-up): 3
distribution of total score of TCM symptom: Severe, percentage of patients (Follow-up): (0.22%)
fatigue score 0, % of patients (Follow-up): (42.80%)
fatigue score 0, number of patients (Follow-up): 597
fatigue score 2, % of patients (Follow-up): (52.97%)
fatigue score 2, number of patients (Follow-up): 739
fatigue score 4, % of patients (Follow-up): (4.01%)
fatigue score 4, number of patients (Follow-up): 56
fatigue score 6, % of patients (Follow-up): (0.22%)
fatigue score 6, number of patients (Follow-up): 3
pale complexion score 0, number of patients (Follow-up): 862
pale complexion score 0, percent of patients (Follow-up): (61.79%)
pale complexion score 1, number of patients (Follow-up): 452
pale complexion score 1, percent of patients (Follow-up): (32.40%)
pale complexion score 2, number of patients (Follow-up): 75
pale complexion score 2, percent of patients (Follow-up): (5.38%)
pale complexion score 3, number of patients (Follow-up): 6
pale complexion score 3, percent of patients (Follow-up): (0.43%)
palpitation score 0, number of patients (Follow-up): 613
palpitation score 0, percent of patients (Follow-up): (43.94%)
palpitation score 2, number of patients (Follow-up): 683
palpitation score 2, percent of patients (Follow-up): (48.96%)
palpitation score 4, number of patients (Follow-up): 94
palpitation score 4, percent of patients (Follow-up): (6.74%)
palpitation score 6, number of patients (Follow-up): 5
palpitation score 6, percent of patients (Follow-up): (0.36%)
short breath score 0, % of patients (Follow-up): (35.34%)
short breath score 0, number of patients (Follow-up): 493
short breath score 2, % of patients (Follow-up): (0.07%)
short breath score 2, number of patients (Follow-up): 1
short breath score 3, % of patients (Follow-up): (54.70%)
short breath score 3, number of patients (Follow-up): 763
short breath score 6, % of patients (Follow-up): (9.68%)
short breath score 6, number of patients (Follow-up): 135
short breath score 9, % of patients (Follow-up): (0.22%)
short breath score 9, number of patients (Follow-up): 3
spontaneous perspiration score 0, number of patients (Follow-up): 750
spontaneous perspiration score 0, percent of patients (Follow-up): (53.80%)
spontaneous perspiration score 1, number of patients (Follow-up): 578
spontaneous perspiration score 1, percent of patients (Follow-up): (41.46%)
spontaneous perspiration score 2, number of patients (Follow-up): 62
spontaneous perspiration score 2, percent of patients (Follow-up): (4.45%)
spontaneous perspiration score 3, number of patients (Follow-up): 4
spontaneous perspiration score 3, percent of patients (Follow-up): (0.29%)
total score of TCM symptom, Max (Follow-up): 32.00
total score of TCM symptom, Md (Follow-up): 7.00
total score of TCM symptom, Mean (Follow-up): 7.73
total score of TCM symptom, Min (Follow-up): 0.00
change of fatigue 0, % of patients (Follow-up-baseline): (42.99%)
change of fatigue 0, number of patients (Follow-up-baseline): 598
change of fatigue 2, % of patients (Follow-up-baseline): (37.60%)
change of fatigue 2, number of patients (Follow-up-baseline): 523
change of fatigue 4, % of patients (Follow-up-baseline): (11.00%)
change of fatigue 4, number of patients (Follow-up-baseline): 153
change of fatigue 6, % of patients (Follow-up-baseline): (2.01%)
change of fatigue 6, number of patients (Follow-up-baseline): 28
change of fatigue −2, % of patients (Follow-up-baseline): (6.18%)
change of fatigue −2, number of patients (Follow-up-baseline): 86
change of fatigue −4, % of patients (Follow-up-baseline): (0.22%)
change of fatigue −4, number of patients (Follow-up-baseline): 3
change of pale complexion 0, number of patients (Follow-up-baseline): 932
change of pale complexion 0, percent of patients (Follow-up-baseline): (67.29%)
change of pale complexion 1, number of patients (Follow-up-baseline): 414
change of pale complexion 1, percent of patients (Follow-up-baseline): (29.89%)
change of pale complexion −1, number of patients (Follow-up-baseline): 39
change of pale complexion −1, percent of patients (Follow-up-baseline): (2.82%)
change of palpitation 0, number of patients (Follow-up-baseline): 677
change of palpitation 0, percent of patients (Follow-up-baseline): (48.71%)
change of palpitation 1, number of patients (Follow-up-baseline): 516
change of palpitation 1, percent of patients (Follow-up-baseline): (37.12%)
change of palpitation 2, number of patients (Follow-up-baseline): 93
change of palpitation 2, percent of patients (Follow-up-baseline): (6.69%)
change of palpitation 3, number of patients (Follow-up-baseline): 14
change of palpitation 3, percent of patients (Follow-up-baseline): (1.01%)
change of palpitation −1, number of patients (Follow-up-baseline): 86
change of palpitation −1, percent of patients (Follow-up-baseline): (6.19%)
change of palpitation −2, number of patients (Follow-up-baseline): 3
change of palpitation −2, percent of patients (Follow-up-baseline): (0.22%)
change of palpitation −3, number of patients (Follow-up-baseline): 1
change of palpitation −3, percent of patients (Follow-up-baseline): (0.07%)
change of short breath 0, % of patients (Follow-up-baseline): (52.12%)
change of short breath 0, number of patients (Follow-up-baseline): 725
change of short breath 2, % of patients (Follow-up-baseline): (36.45%)
change of short breath 2, number of patients (Follow-up-baseline): 507
change of short breath 4, % of patients (Follow-up-baseline): (5.46%)
change of short breath 4, number of patients (Follow-up-baseline): 76
change of short breath 6, % of patients (Follow-up-baseline): (0.72%)
change of short breath 6, number of patients (Follow-up-baseline): 10
change of short breath −2, % of patients (Follow-up-baseline): (5.10%)
change of short breath −2, number of patients (Follow-up-baseline): 71
change of short breath −4, % of patients (Follow-up-baseline): (0.00%)
change of short breath −4, number of patients (Follow-up-baseline): 0
change of short breath −6, % of patients (Follow-up-baseline): (0.14%)
change of short breath −6, number of patients (Follow-up-baseline): 2
change of spontaneous perspiration 0, number of patients (Follow-up-baseline): 644
change of spontaneous perspiration 0, percent of patients (Follow-up-baseline): (46.33%)
change of spontaneous perspiration 1, number of patients (Follow-up-baseline): 451
change of spontaneous perspiration 1, percent of patients (Follow-up-baseline): (32.45%)
change of spontaneous perspiration 2, number of patients (Follow-up-baseline): 138
change of spontaneous perspiration 2, percent of patients (Follow-up-baseline): (9.93%)
change of spontaneous perspiration 3, number of patients (Follow-up-baseline): 31
change of spontaneous perspiration 3, percent of patients (Follow-up-baseline): (2.23%)
change of spontaneous perspiration −1, percent of patients (Follow-up-baseline): (8.35%)
change of spontaneous perspiration −2, number of patients (Follow-up-baseline): 8
change of spontaneous perspiration −2, percent of patients (Follow-up-baseline): (0.58%)
change of spontaneous perspiration −3, number of patients (Follow-up-baseline): 2
change of spontaneous perspiration −3, percent of patients (Follow-up-baseline): (0.14%)
change of total score of TCM symptom, Max (Follow-up-baseline): 27.00
change of total score of TCM symptom, Md (Follow-up-baseline): −5.00
change of total score of TCM symptom, Mean (Follow-up-baseline): −6.16
change of total score of TCM symptom, Min (Follow-up-baseline): −29.00
